# Where two headings read alike, the source gives them in different places.
# Assays:
# [1] = test system: MDD patients who had inadequate response to ongoing antidepressant treatment; details: adjunctive, Durgam et al. 2016, cited from earlier work
# [2] = test system: patients with major depressive disorder (MDD); assay: MADRS total score, Clinical Study A (Study 301): cariprazine adjunctive to ADT, 6-week double-blind; assay type: in vivo, human; details: for Proportion of patients with MADRS improvement ≥5 points / Proportion of patients with MADRS improvement ≥10 points / Proportion of patients with MADRS improvement ≥15 points / Proportion of patients with MADRS improvement ≥20 points / Proportion of patients with MADRS improvement ≥25 points: post hoc, end of week 6 (LOCF); for MADRS remission rate (total score ≤10) / MADRS response rate (≥50% score reduction from baseline): LOCF
# Procedure: A global, multicenter, randomized, double-blind (DB), placebo-controlled, parallel-group, fixed-dose study compared cariprazine 1.5 mg/day and cariprazine 3 mg/day with placebo as an adjunctive treatment to ongoing ADT in outpatients with a diagnosis of MDD (via the Diagnostic and Statistical Manual of Mental Disorders, Fifth Edition [DSM-5]) having an inadequate response, as measured by the modified Antidepressant Treatment Response Questionnaire (ATRQ), to 1 to 3 antidepressants administered during the current episode at an adequate dose and adequate duration. Adequate dose was defined as a dose above the minimum labeled dose (per package insert). Adequate duration was defined as continuous ADT treatment for at least 6 weeks, with a minimum of 3 of 6 weeks above the minimal dose.
# The study population included patients meeting criteria for MDD with a current major depressive episode of at least 8 weeks to less than 24 months in duration and an inadequate response to ongoing antidepressant therapy on the current episode. Both male and female patients of 18 to 65 years of age qualified for the study. Patients met the DSM-5 criteria for MDD based on the SCID-5, with a current major depressive episode of at least 8 weeks to less than 24 months in duration at the time of patient screening. A diagnosis of MDD with psychotic features was […].
# Adequate dose was defined as a dose above the minimum labeled dose (per package insert). Adequate duration was defined as continuous antidepressant therapy treatment for at least 6 weeks, with a minimum of 3 of 6 weeks above the minimum dose.
# The study consisted of up to 14 days screening (with up to an additional 7 days of needed) and washout of prohibited medications followed by 6 weeks of double-blind (DB) treatment followed by a 4-week safety follow-up. At the end of the screening period, patients meeting the entry criteria for the study were randomized (1:1:1) to 1 of 3 double-blind treatment groups. Study treatment groups were: cariprazine 1.5 mg/day+antidepressant therapy and cariprazine 3 mg/day+antidepressant therapy. The control group received matching placebo+antidepressant therapy.
# Dosage/Dose Regimen: Investigational product (cariprazine or placebo) in the form of capsules packaged in blister packs will be provided. No investigational product was administered during the screening/washout period; patients continued the same antidepressant and dose they were on at screening. Patients were taking more than one antidepressant at screening, regardless of the indication, discontinued all other antidepressants prior to baseline (Visit 2). During the double-blind treatment period (6 weeks), patients were administered 1 capsule orally per day in addition to their ongoing ADT. Patients in the 1.5 mg/day+ADT arm were administered 1.5 mg+ADT starting at Visit 2 (Week 0). Patients in the 3 mg/day+ADT arm were administered 1.5 mg+ADT starting at Visit 2 (Week 0) for 2 weeks and then titrate to 3 mg/day+ADT starting at Visit 4 (Week 2). Patients were supplied with identically appearing capsules of either cariprazine 1.5 mg, cariprazine 3 mg, or placebo.
# A randomized, double-blind, placebo-controlled, multicenter trial with 759 participants was conducted in United States, Bulgaria, Estonia, Germany, Hungary, Ukraine, and the United Kingdom. Following a screening period of up to 14 days (with up to an additional 7 days if needed), which included a washout of prohibited psychotropic medications except for ongoing ADT, patients with a partial response to their antidepressant monotherapy were randomized into three treatment groups (1:1:1). One group received cariprazine 1.5 mg/d+ADT, one received cariprazine 3.0 mg/d+ADT, and one group received placebo+ADT. All participants randomized to cariprazine began on 1.5 mg/d; cariprazine 1.5 mg/d patients remained at that dosage, while cariprazine 3.0 mg/d patients received 1.5 mg/d for 2 weeks and increased to 3.0 mg/d on day 15. […]
# [3] = 1.5 mg/d + ADT, week 6, ANCOVA and LOCF
# [4] = 3.0 mg/d + ADT, week 6, ANCOVA and LOCF
# [5] = change from baseline to week 6, dose not stated
smiles,measurement,setting,value
"CN(C)C(=O)N[C@H]1CC[C@H](CCN2CCN(c3cccc(Cl)c3Cl)CC2)CC1 [Cariprazine, trans-N-{4-[2-[4-(2,3-dichlorophenyl)piperazin-1-yl]ethyl]cyclohexyl}-N′,N′-dimethylurea]","LSMD vs placebo, MADRS total score",[1]; 1-2 mg per day variable dosing,−0.9
same,"LSMD vs placebo, MADRS total score",[1]; 2-4.5 mg per day variable dosing,−2.2
same,Proportion of patients with MADRS improvement ≥5 points,[2]; 1.5 mg/d + ADT,84%
same,Proportion of patients with MADRS improvement ≥10 points,[2]; 1.5 mg/d + ADT,64%
same,Proportion of patients with MADRS improvement ≥15 points,[2]; 1.5 mg/d + ADT,46%
same,Proportion of patients with MADRS improvement ≥20 points,[2]; 1.5 mg/d + ADT,33%
same,Proportion of patients with MADRS improvement ≥25 points,[2]; 1.5 mg/d + ADT,19%
same,Mean (SD) MADRS score at week 6,"[2]; 1.5 mg/d + ADT, week 6",17.4 (9.1)
same,LS mean change from baseline in MADRS total score,[2]; [3],−14.4
same,"LSMD vs placebo, MADRS total score",[2]; [3],−2.4
same,MADRS remission rate (total score ≤10),"[2]; 1.5 mg/d + ADT, week 6",25.2%
same,MADRS response rate (≥50% score reduction from baseline),"[2]; 1.5 mg/d + ADT, week 6",44.0%
same,"LS Mean (SE) change from baseline, MADRS total score","[2]; 1.5 mg/day + ADT, week 1, MMRM",−4.4 (0.5)
same,"LSMD (95% CI) vs placebo + ADT, MADRS total score","[2]; 1.5 mg/day + ADT, week 1, MMRM",−0.6 (−1.5; 0.5)
same,"MADRS remission, odds ratio vs placebo (95% CI)","[2]; 1.5 mg/day + ADT, week 2","0.9 (0.4, 1.8)"
same,MADRS remissions (total score ≤10),"[2]; 1.5 mg/day + ADT, week 2",13 (5.2) n (%)
same,MADRS responders (≥50% score reduction),"[2]; 1.5 mg/day + ADT, week 2",43 (17.2) n (%)
same,"MADRS response, odds ratio vs placebo (95% CI)","[2]; 1.5 mg/day + ADT, week 2","1.2 (0.7, 2.0)"
same,"LS Mean (SE) change from baseline, MADRS total score","[2]; 1.5 mg/day + ADT, week 2, MMRM",−8.6 (0.6)
same,"LSMD (95% CI) vs placebo + ADT, MADRS total score","[2]; 1.5 mg/day + ADT, week 2, MMRM",−1.2 (−2.5; 0)
same,"MADRS remission, odds ratio vs placebo (95% CI)","[2]; 1.5 mg/day + ADT, week 4","1.2 (0.7, 1.9)"
same,MADRS remissions (total score ≤10),"[2]; 1.5 mg/day + ADT, week 4",37 (14.8) n (%)
same,MADRS responders (≥50% score reduction),"[2]; 1.5 mg/day + ADT, week 4",88 (35.2) n (%)
same,"MADRS response, odds ratio vs placebo (95% CI)","[2]; 1.5 mg/day + ADT, week 4","1.6 (1.1, 2.3)"
same,"LS Mean (SE) change from baseline, MADRS total score","[2]; 1.5 mg/day + ADT, week 4, MMRM",−12.4 (0.6)
same,"LSMD (95% CI) vs placebo + ADT, MADRS total score","[2]; 1.5 mg/day + ADT, week 4, MMRM",−2.9 (−4.3; −1.5)
same,MADRS remissions (total score ≤10),"[2]; 1.5 mg/day + ADT, week 6",63 (25.2) n (%)
same,MADRS responders (≥50% score reduction),"[2]; 1.5 mg/day + ADT, week 6",110 (44.0) n (%)
same,"LSMD vs placebo, MADRS total score","[2]; 1.5 mg/day + ADT, week 6, MMRM",−2.5 (−4.2; −0.9)
same,"LSMD vs placebo, MADRS total score","[2]; 1.5 mg/day + ADT, week 6, MMRM, listed as CAR",−2.5
same,"LSMD vs placebo, MADRS total score","[2]; 1.5 mg/day + ADT, week 6, MMRM, listed as cariprazine",−2.5
same,LS mean change from baseline in MADRS total score,"[2]; 1.5 mg/day + ADT, week 6, MMRM, mITT",−14.1 (0.7)
same,LS mean change from baseline in MADRS total score,"[2]; 1.5 mg/day + ADT, week 6, MMRM, mITT, listed as cariprazine",−14.1
same,Proportion of patients with MADRS improvement ≥5 points,[2]; 3.0 mg/d + ADT,84%
same,Proportion of patients with MADRS improvement ≥10 points,[2]; 3.0 mg/d + ADT,66%
same,Proportion of patients with MADRS improvement ≥15 points,[2]; 3.0 mg/d + ADT,43%
same,Proportion of patients with MADRS improvement ≥20 points,[2]; 3.0 mg/d + ADT,24%
same,Proportion of patients with MADRS improvement ≥25 points,[2]; 3.0 mg/d + ADT,11%
same,Mean (SD) MADRS score at week 6,"[2]; 3 mg/d + ADT, week 6",18.6 (8.9)
same,LS mean change from baseline in MADRS total score,[2]; [4],−13.3
same,"LSMD vs placebo, MADRS total score",[2]; [4],−1.3
same,MADRS remission rate (total score ≤10),"[2]; 3.0 mg/d + ADT, week 6",16.7%
same,MADRS response rate (≥50% score reduction from baseline),"[2]; 3.0 mg/d + ADT, week 6",39.3%
same,"LS Mean (SE) change from baseline, MADRS total score","[2]; 3 mg/day + ADT, week 1, MMRM",−3.9 (0.5)
same,"LSMD (95% CI) vs placebo + ADT, MADRS total score","[2]; 3 mg/day + ADT, week 1, MMRM",−0.1 (−1.0; 0.8)
same,"MADRS remission, odds ratio vs placebo (95% CI)","[2]; 3 mg/day + ADT, week 2","0.5 (0.25, 1.23)"
same,MADRS remissions (total score ≤10),"[2]; 3 mg/day + ADT, week 2",9 (3.6) n (%)
same,MADRS responders (≥50% score reduction),"[2]; 3 mg/day + ADT, week 2",39 (15.5) n (%)
same,"MADRS response, odds ratio vs placebo (95% CI)","[2]; 3 mg/day + ADT, week 2","1.1 (0.7, 1.8)"
same,"LS Mean (SE) change from baseline, MADRS total score","[2]; 3 mg/day + ADT, week 2, MMRM",−7.8 (0.6)
same,"LSMD (95% CI) vs placebo + ADT, MADRS total score","[2]; 3 mg/day + ADT, week 2, MMRM",−0.5 (−1.7; 0.8)
same,"MADRS remission, odds ratio vs placebo (95% CI)","[2]; 3 mg/day + ADT, week 4","0.6 (0.4, 1.1)"
same,MADRS remissions (total score ≤10),"[2]; 3 mg/day + ADT, week 4",22 (8.7) n (%)
same,MADRS responders (≥50% score reduction),"[2]; 3 mg/day + ADT, week 4",60 (23.8) n (%)
same,"MADRS response, odds ratio vs placebo (95% CI)","[2]; 3 mg/day + ADT, week 4","0.9 (0.6, 1.3)"
same,"LS Mean (SE) change from baseline, MADRS total score","[2]; 3 mg/day + ADT, week 4, MMRM",−10.6 (0.6)
same,"LSMD (95% CI) vs placebo + ADT, MADRS total score","[2]; 3 mg/day + ADT, week 4, MMRM",−1.0 (−2.4; 0.4)
same,MADRS remissions (total score ≤10),"[2]; 3 mg/day + ADT, week 6",42 (16.7) n (%)
same,MADRS responders (≥50% score reduction),"[2]; 3 mg/day + ADT, week 6",99 (39.3) n (%)
same,"LSMD vs placebo, MADRS total score","[2]; 3 mg/day + ADT, week 6, MMRM",−1.5 (−3.2; 0.1)
same,"LSMD vs placebo, MADRS total score","[2]; 3 mg/day + ADT, week 6, MMRM, listed as CAR",−1.5
same,LS mean change from baseline in MADRS total score,"[2]; 3 mg/day + ADT, week 6, MMRM, mITT",−13.1
same,"LSMD vs placebo, MADRS individual item ""apparent sadness""",[2]; [5],−0.2
same,"LSMD vs placebo, MADRS individual item ""inability to feel""",[2]; [5],−0.3
same,"LSMD vs placebo, MADRS individual item ""lassitude""",[2]; [5],−0.3
same,"LSMD vs placebo, MADRS individual item ""pessimistic thoughts""",[2]; [5],−0.3
same,"LSMD vs placebo, MADRS individual item ""reduced appetite""",[2]; [5],−0.3
same,"LSMD vs placebo, MADRS individual item ""reported sadness""",[2]; [5],−0.4
same,"LSMD vs placebo, MADRS individual item ""suicidal thoughts""",[2]; [5],−0.1

# Reference: patent US20240398787A1, “TREATMENT OF MAJOR DEPRESSIVE DISORDER” (AbbVie Inc., priority 2021, published 2024)
